## N[C@@H](Cc1ccccc1)C(=O)O
In 1,4-dioxane, 288.15 K
  solubility (mole fraction): 1.86e-05
In 1,4-dioxane, 293.15 K
  solubility (mole fraction): 2.37e-05
In 1,4-dioxane, 298.15 K
  solubility (mole fraction): 3.09e-05
In 1,4-dioxane, 303.15 K
  solubility (mole fraction): 3.5e-05
In 1,4-dioxane, 308.15 K
  solubility (mole fraction): 3.9e-05
In 1,4-dioxane, 313.15 K
  solubility (mole fraction): 4.53e-05
In 1,4-dioxane, 318.15 K
  solubility (mole fraction): 5.92e-05
In 1,4-dioxane, 323.15 K
  solubility (mole fraction): 8.28e-05
In 1,4-dioxane, 328.15 K
  solubility (mole fraction): 0.000118
In acetone, 283.15 K
  solubility (mole fraction): 8.09e-05
In acetone, 288.15 K
  solubility (mole fraction): 0.000104
In acetone, 293.15 K
  solubility (mole fraction): 0.000131
In acetone, 298.15 K
  solubility (mole fraction): 0.000153
In acetone, 303.15 K
  solubility (mole fraction): 0.000176
In acetone, 308.15 K
  solubility (mole fraction): 0.000226
In acetone, 313.15 K
  solubility (mole fraction): 0.000293
In acetone, 318.15 K
  solubility (mole fraction): 0.00033
In acetone, 323.15 K
  solubility (mole fraction): 0.000375
In acetonitrile, 283.15 K
  solubility (mole fraction): 7.9e-06
In acetonitrile, 288.15 K
  solubility (mole fraction): 9.3e-06
In acetonitrile, 293.15 K
  solubility (mole fraction): 1.12e-05
In acetonitrile, 298.15 K
  solubility (mole fraction): 1.55e-05
In acetonitrile, 303.15 K
  solubility (mole fraction): 1.8e-05
In acetonitrile, 308.15 K
  solubility (mole fraction): 2.4e-05
In acetonitrile, 313.15 K
  solubility (mole fraction): 3.67e-05
In acetonitrile, 318.15 K
  solubility (mole fraction): 4.72e-05
In acetonitrile, 323.15 K
  solubility (mole fraction): 5.69e-05
In ethanol, 283.15 K
  solubility (mole fraction): 0.000125
In ethanol, 288.15 K
  solubility (mole fraction): 0.000136
In ethanol, 293.15 K
  solubility (mole fraction): 0.000151
In ethanol, 298.15 K
  solubility (mole fraction): 0.000165
In ethanol, 303.15 K
  solubility (mole fraction): 0.000177
In ethanol, 308.15 K
  solubility (mole fraction): 0.000191
In ethanol, 313.15 K
  solubility (mole fraction): 0.000208
In ethanol, 318.15 K
  solubility (mole fraction): 0.000222
In ethanol, 323.15 K
  solubility (mole fraction): 0.000231
In ethyl acetate, 283.15 K
  solubility (mole fraction): 1.33e-05
In ethyl acetate, 288.15 K
  solubility (mole fraction): 1.49e-05
In ethyl acetate, 293.15 K
  solubility (mole fraction): 1.95e-05
In ethyl acetate, 298.15 K
  solubility (mole fraction): 2.06e-05
In ethyl acetate, 303.15 K
  solubility (mole fraction): 2.37e-05
In ethyl acetate, 308.15 K
  solubility (mole fraction): 3.38e-05
In ethyl acetate, 313.15 K
  solubility (mole fraction): 5.38e-05
In ethyl acetate, 318.15 K
  solubility (mole fraction): 9.29e-05
In ethyl acetate, 323.15 K
  solubility (mole fraction): 0.000194
In isobutanol, 283.15 K
  solubility (mole fraction): 7.49e-05
In isobutanol, 288.15 K
  solubility (mole fraction): 7.77e-05
In isobutanol, 293.15 K
  solubility (mole fraction): 9.15e-05
In isobutanol, 298.15 K
  solubility (mole fraction): 0.000124
In isobutanol, 303.15 K
  solubility (mole fraction): 0.000158
In isobutanol, 308.15 K
  solubility (mole fraction): 0.000187
In isobutanol, 313.15 K
  solubility (mole fraction): 0.000224
In isobutanol, 318.15 K
  solubility (mole fraction): 0.000278
In isobutanol, 323.15 K
  solubility (mole fraction): 0.000323
In isopropanol, 283.15 K
  solubility (mole fraction): 4.14e-05
In isopropanol, 288.15 K
  solubility (mole fraction): 5.16e-05
In isopropanol, 293.15 K
  solubility (mole fraction): 6.41e-05
In isopropanol, 298.15 K
  solubility (mole fraction): 7.29e-05
In isopropanol, 303.15 K
  solubility (mole fraction): 9.54e-05
In isopropanol, 308.15 K
  solubility (mole fraction): 0.00011
In isopropanol, 313.15 K
  solubility (mole fraction): 0.000122
In isopropanol, 318.15 K
  solubility (mole fraction): 0.00015
In isopropanol, 323.15 K
  solubility (mole fraction): 0.000178
In methanol, 283.15 K
  solubility (mole fraction): 0.000742
In methanol, 288.15 K
  solubility (mole fraction): 0.000807
In methanol, 293.15 K
  solubility (mole fraction): 0.000866
In methanol, 298.15 K
  solubility (mole fraction): 0.000937
In methanol, 303.15 K
  solubility (mole fraction): 0.000996
In methanol, 308.15 K
  solubility (mole fraction): 0.00105
In methanol, 313.15 K
  solubility (mole fraction): 0.00112
In methanol, 318.15 K
  solubility (mole fraction): 0.00119
In methanol, 323.15 K
  solubility (mole fraction): 0.00126
In methyl acetate, 283.15 K
  solubility (mole fraction): 4.3e-06
In methyl acetate, 288.15 K
  solubility (mole fraction): 8.5e-06
In methyl acetate, 293.15 K
  solubility (mole fraction): 1e-05
In methyl acetate, 298.15 K
  solubility (mole fraction): 1.49e-05
In methyl acetate, 303.15 K
  solubility (mole fraction): 1.93e-05
In methyl acetate, 308.15 K
  solubility (mole fraction): 3.27e-05
In methyl acetate, 313.15 K
  solubility (mole fraction): 4.41e-05
In methyl acetate, 318.15 K
  solubility (mole fraction): 5.46e-05
In methyl acetate, 323.15 K
  solubility (mole fraction): 6.4e-05
In n-butanol, 283.15 K
  solubility (mole fraction): 5.9e-06
In n-butanol, 288.15 K
  solubility (mole fraction): 8.4e-06
In n-butanol, 293.15 K
  solubility (mole fraction): 9.8e-06
In n-butanol, 298.15 K
  solubility (mole fraction): 2.2e-05
In n-butanol, 303.15 K
  solubility (mole fraction): 3.48e-05
In n-butanol, 308.15 K
  solubility (mole fraction): 4.72e-05
In n-butanol, 313.15 K
  solubility (mole fraction): 5.85e-05
In n-butanol, 318.15 K
  solubility (mole fraction): 8.5e-05
In n-butanol, 323.15 K
  solubility (mole fraction): 0.000104
In n-propanol, 283.15 K
  solubility (mole fraction): 2.83e-05
In n-propanol, 288.15 K
  solubility (mole fraction): 2.99e-05
In n-propanol, 293.15 K
  solubility (mole fraction): 3.34e-05
In n-propanol, 298.15 K
  solubility (mole fraction): 4.63e-05
In n-propanol, 303.15 K
  solubility (mole fraction): 5.58e-05
In n-propanol, 308.15 K
  solubility (mole fraction): 6.44e-05
In n-propanol, 313.15 K
  solubility (mole fraction): 8.96e-05
In n-propanol, 318.15 K
  solubility (mole fraction): 0.000141
In n-propanol, 323.15 K
  solubility (mole fraction): 0.000187
In water, 283.15 K
  solubility (mole fraction): 0.00274
In water, 288.15 K
  solubility (mole fraction): 0.00289
In water, 293.15 K
  solubility (mole fraction): 0.00307
In water, 298.15 K
  solubility (mole fraction): 0.00321
In water, 303.15 K
  solubility (mole fraction): 0.00342
In water, 308.15 K
  solubility (mole fraction): 0.0036
In water, 313.15 K
  solubility (mole fraction): 0.00379
In water, 318.15 K
  solubility (mole fraction): 0.00404
In water, 323.15 K
  solubility (mole fraction): 0.00433

— BigSolDB 2.1
